Tests used:
Experiment in all cases: cell-based
GluN1/2D [1] = target: T1, GluN1/2D (Rattus norvegicus, UniProt P35439); set-up: species or system Xenopus laevis oocytes; two-electrode voltage-clamp recording of NMDA receptor agonist responses with 300 uM glutamate, relative to maximal glycine response; details: Oocyte; 300 uM glutamate; read-out: % activation
T1 construct: gene Grin1; full-length subunits co-expressed from cRNA (1:2) in Xenopus laevis oocytes; heterotetramer; with Glutamate receptor ionotropic, NMDA 2D
Experimental: (§1) Oocytes were injected with cRNAs for GluN1 and GluN2 subunits at a 1:2 ratio, and incubated as previously described ([Hansen et al., 2013]). The injected oocytes were used for two-electrode voltage-clamp recordings at room temperature (21–23°C) after 2–4 days of expression. as previously described ([Hansen et al., 2013]). The holding potential was −40 mV in all recordings. The recording solution was comprised of (in mM) 90 NaCl, 1 KCl, 10 HEPES, 0.5 BaCl2 and 0.01 EDTA (pH 7.4). For experiments with GluN1/2A or GluN1/2B receptors, the oocytes were injected at least 10 min before recordings with 50 mM BAPTA (30–50 nL) to minimize use-dependent increases in response amplitudes ([Williams, 1993]). Compounds were dissolved as 20–100 mM stock solutions in DMSO, and DMSO concentrations were constant in all recording solutions and never exceeded 1%. GraphPad Prism (GraphPad Software, La Jolla, CA) was used to analyze agonist concentration-response data. Briefly, the data for each oocyte were fitted to the following Hill equation, I = Rmax/(1 + 10^((logEC50-log [A])*nH)). […] The pharmacological properties of analogues 13a-j and 16 were determined with two-electrode voltage-clamp recordings of responses from recombinant NMDA receptor subtypes (Table 1; Figure 4). Compound 13f was identified as agonist with lower maximal response relative to glycine (Rmax) at GluN1/2A (47%) and GluN1/2B (23%), but Rmax similar to glycine at GluN1/2C (94%) and GluN1/2D (96%).

GluN1/2C [2] = target: T2, GluN1/2C (Rattus norvegicus, UniProt P35439); set-up: species or system Xenopus laevis oocytes; two-electrode voltage-clamp recording of NMDA receptor agonist responses with 300 uM glutamate, relative to maximal glycine response; details: Oocyte; 300 uM glutamate; read-out: % activation
T2 construct: gene Grin1; full-length subunits co-expressed from cRNA (1:2) in Xenopus laevis oocytes; heterotetramer (human Q14957 was used only for modelling); with Glutamate receptor ionotropic, NMDA 2C
Experimental: as §1

GluN1/2D [3] = target: T1, GluN1/2D; set-up: species or system Xenopus laevis oocytes; Two-electrode voltage-clamp concentration-response of glycine-site agonists with saturating glutamate; efficacy relative to 100 uM glycine; details: Oocyte; fitted maximum relative to 100 uM glycine, saturating glutamate; read-out: Rel. efficacy (%) / 100 / 92.671
Text: (§2) For expression in Xenopus laevis oocytes purchased from Rob Weymouth (Xenopus 1, Dexter, MI), cDNAs encoding rat NMDA receptor subunits, GluN1-1a (Genbank accession number U11418 and U08261), GluN2A (D13211), GluN2B (U11419), GluN2C (M91563), and GluN2D (L31611), were used to produce cRNAs using the mMessage mMachine kit (Ambion, Life Technologies, Paisley, United Kingdom) according to the manufacturer’s protocol. The open reading frame of the GluN2B subunit was altered without changing the amino acid sequence to remove a termination site for the T7 RNA polymerase used to synthesize cRNA ([Hansen et al., 2014]). Oocytes were injected with cRNAs for GluN1 and GluN2 subunits at a 1:2 ratio, and incubated as previously described ([Hansen et al., 2013]). The injected oocytes were used for two-electrode […] recordings at room temperature (21–23°C) after 2–4 days of expression. as previously described ([Hansen et al., 2013]). The holding potential was −40 mV in all recordings. The recording solution was comprised of (in mM) 90 NaCl, 1 KCl, 10 HEPES, 0.5 BaCl2 and 0.01 EDTA (pH 7.4). For experiments with GluN1/2A or GluN1/2B receptors, the oocytes were injected at least 10 min before recordings with 50 mM BAPTA (30–50 nL) to minimize use-dependent increases in response amplitudes ([Williams, 1993]). Compounds were dissolved as 20–100 mM stock solutions in DMSO, and DMSO concentrations were constant in all recording solutions and never exceeded 1%. GraphPad Prism (GraphPad Software, La Jolla, CA) was used to analyze agonist concentration-response data. Briefly, the data for each oocyte were fitted to the following Hill equation, I = Rmax/(1 + 10^((logEC50-log [A])*nH)).

GluN1/2C [4] = target: T2, GluN1/2C; set-up: species or system Xenopus laevis oocytes; Two-electrode voltage-clamp concentration-response of glycine-site agonists with saturating glutamate; efficacy relative to 100 uM glycine; details: Oocyte; fitted maximum relative to 100 uM glycine, saturating glutamate; read-out: Rel. efficacy (%) / 100 / 111.08
Text: as §2

GluN1/2B [5] = target: T3, GluN1/2B (Rattus norvegicus, UniProt P35439); set-up: species or system Xenopus laevis oocytes; Two-electrode voltage-clamp concentration-response of glycine-site agonists with saturating glutamate; efficacy relative to 100 uM glycine; details: Oocyte; fitted maximum relative to 100 uM glycine, saturating glutamate; read-out: Rel. efficacy (%) / 100 / 100.0775
T3 construct: gene Grin1; full-length subunits co-expressed from cRNA (1:2) in Xenopus laevis oocytes; GluN2B ORF altered only silently; heterotetramer; with Glutamate receptor ionotropic, NMDA 2B
Text: as §2

GluN1/2A = target: T4, GluN1/2A (Rattus norvegicus, UniProt P35439); set-up: species or system Xenopus laevis oocytes; Two-electrode voltage-clamp concentration-response of glycine-site agonists with saturating glutamate; efficacy relative to 100 uM glycine; details: Oocyte; fitted maximum relative to 100 uM glycine, saturating glutamate; read-out: Rel. efficacy (%) / 99.6672727273 / 96.0542857143
T4 construct: gene Grin1; full-length subunits co-expressed from cRNA (GluN1:GluN2 1:2) in Xenopus laevis oocytes; heterotetramer; glycine site in GluN1; with Glutamate receptor ionotropic, NMDA 2A
Text: as §2

GluN1/2B [6] = target: T3, GluN1/2B; set-up: species or system Xenopus laevis oocytes; two-electrode voltage-clamp recording of NMDA receptor agonist responses with 300 uM glutamate, relative to maximal glycine response; details: Oocyte; 300 uM glutamate; read-out: % activation
Experimental: as §1

| SMILES | Emax (GluN1/2D [3]) [%] | Emax (GluN1/2C [4]) [%] | Emax (GluN1/2B [5]) [%] | Emax (GluN1/2A) [%] | activity at 100 µM (GluN1/2D [1]) [%] | activity at 100 µM (GluN1/2C [2]) [%] | activity at 100 µM (GluN1/2B [6]) [%] |
| --- | --- | --- | --- | --- | --- | --- | --- |
| N[C@H](Cn1cc(Cc2ccccc2)nn1)C(=O)O [13c, (R)-2-Amino-3-(4-benzyl-1H-1,2,3-triazol-1-yl)propanoic acid] | – | – | – | – | 5.9 | 12 | – |
| Nc1ccc(-c2cn(C[C@@H](N)C(=O)O)nn2)cc1 [13f, (R)-2-Amino-3-(4-(4-aminophenyl)-1H-1,2,3-triazol-1-yl)propanoic acid] | 96.5 | 93.9 | 22.8 | 47.3 | – | – | – |
| N[C@H](Cn1cc(CCO)nn1)C(=O)O [13a, (R)-2-Amino-3-(4-(2-hydroxyethyl)-1H-1,2,3-triazol-1-yl)propanoic acid] | – | – | – | – | 34 | 22 | 6.2 |
| CCCCc1cn(C[C@@H](N)C(=O)O)nn1 [13b, (R)-2-Amino-3-(4-butyl-1H-1,2,3-triazol-1-yl)propanoic acid] | – | – | – | – | 32 | 27 | 9.2 |

More lines, main results first:

| Emax (GluN1/2D [3]) [%] | Emax (GluN1/2C [4]) [%] | Emax (GluN1/2B [5]) [%] | Emax (GluN1/2A) [%] | SMILES | activity at 100 µM (GluN1/2D [1]) [%] | activity at 100 µM (GluN1/2C [2]) [%] | activity at 100 µM (GluN1/2B [6]) [%] |
| --- | --- | --- | --- | --- | --- | --- | --- |
| 81.8 | 81.9 | 46.3 | 56.4 | N[C@H](Cn1cc(-c2ccsc2)nn1)C(=O)O [13i, (R)-2-Amino-3-(4-(thiophen-3-yl)-1H-1,2,3-triazol-1-yl)propanoic acid] | – | – | – |
| 87.5 | 96.9 | 55.7 | 65.5 | N[C@H](Cn1cc(-c2cccnc2)nn1)C(=O)O [13g, (R)-2-Amino-3-(4-(pyridin-3-yl)-1H-1,2,3-triazol-1-yl)propanoic acid] | – | – | – |
